# In patent US20240238242A1, “EGCG buccal tablet and use thereof” (priority 2023, published 2024):
# Values joined by “and” are separate entries in the source; they are usually repeats but may differ in a detail not shown here. Identical values can stand only once. Like-named read-outs stand apart in the source and are kept apart here.
# Test system: Influenza A H1N1 virus (H1N1-PR8)
# Assay type: cell-based
# Details: for average inactivation efficiency against virus: three experiments; for inactivation efficiency against the virus: single experiment
# [1] = 0.2 mM EGCG, PR8 virus, 5 minutes
# [2] = 1 mM EGCG, PR8 virus, 5 minutes
# [3] = 5 mM EGCG, PR8 virus, 5 minutes
compound,measurement,setting,value
"O=C(O[C@@H]1Cc2c(O)cc(O)cc2O[C@@H]1c1cc(O)c(O)c(O)c1)c1cc(O)c(O)c(O)c1 [EGCG, Epigallocatechin gallate]","CPE test, virus replication in cell wells (wells 1-10)","0.2 mM EGCG + PR8 virus, 5 minutes, third experiment, dilution factor 10^1",+
same,"CPE test, virus replication in cell wells (wells 1-10)","0.2 mM EGCG + PR8 virus, 5 minutes, third experiment, dilution factor 10^2",+
same,"CPE test, virus replication in cell wells (wells 1-10)","0.2 mM EGCG + PR8 virus, 5 minutes, third experiment, dilution factor 10^3",+
same,"CPE test, virus replication in cell wells (wells 1-10)","0.2 mM EGCG + PR8 virus, 5 minutes, third experiment, dilution factor 10^4",+
same,"CPE test, virus replication in cell wells (wells 1-10)","0.2 mM EGCG + PR8 virus, 5 minutes, third experiment, dilution factor 10^5",+
same,"CPE test, virus replication in cell wells (wells 1-10)","0.2 mM EGCG + PR8 virus, 5 minutes, third experiment, dilution factor 10^6",− and +
same,"CPE test, virus replication in cell wells (wells 1-10)","0.2 mM EGCG + PR8 virus, 5 minutes, third experiment, dilution factor 10^7",−
same,"CPE test, virus replication in cell wells (wells 1-10)","0.2 mM EGCG + PR8 virus, 5 minutes, third experiment, dilution factor 10^8",−
same,CPE test (virus replication in the cell wells),"0.2 mM EGCG + PR8 virus, co-incubated 1 minute, third experiment, dilution factor 10^1, wells 1-10",+
same,CPE test (virus replication in the cell wells),"0.2 mM EGCG + PR8 virus, co-incubated 1 minute, third experiment, dilution factor 10^2, wells 1-10",+
same,CPE test (virus replication in the cell wells),"0.2 mM EGCG + PR8 virus, co-incubated 1 minute, third experiment, dilution factor 10^3, wells 1-10",+
same,CPE test (virus replication in the cell wells),"0.2 mM EGCG + PR8 virus, co-incubated 1 minute, third experiment, dilution factor 10^4, wells 1-10",+
same,CPE test (virus replication in the cell wells),"0.2 mM EGCG + PR8 virus, co-incubated 1 minute, third experiment, dilution factor 10^5, wells 1-10",+
same,CPE test (virus replication in the cell wells),"0.2 mM EGCG + PR8 virus, co-incubated 1 minute, third experiment, dilution factor 10^6, wells 1-10",+ and −
same,CPE test (virus replication in the cell wells),"0.2 mM EGCG + PR8 virus, co-incubated 1 minute, third experiment, dilution factor 10^7, wells 1-10",− and +
same,CPE test (virus replication in the cell wells),"0.2 mM EGCG + PR8 virus, co-incubated 1 minute, third experiment, dilution factor 10^8, wells 1-10",−
same,CPE test (virus replication in the cell wells),"0.2 mM EGCG + virus, PR8, 1 minute, first experiment, dilution factor 10^1, wells 1-10",+
same,CPE test (virus replication in the cell wells),"0.2 mM EGCG + virus, PR8, 1 minute, first experiment, dilution factor 10^2, wells 1-10",+
same,CPE test (virus replication in the cell wells),"0.2 mM EGCG + virus, PR8, 1 minute, first experiment, dilution factor 10^3, wells 1-10",+
same,CPE test (virus replication in the cell wells),"0.2 mM EGCG + virus, PR8, 1 minute, first experiment, dilution factor 10^4, wells 1-10",+
same,CPE test (virus replication in the cell wells),"0.2 mM EGCG + virus, PR8, 1 minute, first experiment, dilution factor 10^5, wells 1-10",+
same,CPE test (virus replication in the cell wells),"0.2 mM EGCG + virus, PR8, 1 minute, first experiment, dilution factor 10^6, wells 1-10",− and +
same,CPE test (virus replication in the cell wells),"0.2 mM EGCG + virus, PR8, 1 minute, first experiment, dilution factor 10^7, wells 1-10",− and +
same,CPE test (virus replication in the cell wells),"0.2 mM EGCG + virus, PR8, 1 minute, first experiment, dilution factor 10^8, wells 1-10",−
same,CPE test (virus replication in the cell wells),"0.2 mM EGCG + virus, PR8, 1 minute, second experiment, dilution factor 10^1, wells 1-10",+
same,CPE test (virus replication in the cell wells),"0.2 mM EGCG + virus, PR8, 1 minute, second experiment, dilution factor 10^2, wells 1-10",+
same,CPE test (virus replication in the cell wells),"0.2 mM EGCG + virus, PR8, 1 minute, second experiment, dilution factor 10^3, wells 1-10",+
same,CPE test (virus replication in the cell wells),"0.2 mM EGCG + virus, PR8, 1 minute, second experiment, dilution factor 10^4, wells 1-10",+
same,CPE test (virus replication in the cell wells),"0.2 mM EGCG + virus, PR8, 1 minute, second experiment, dilution factor 10^5, wells 1-10",+
same,CPE test (virus replication in the cell wells),"0.2 mM EGCG + virus, PR8, 1 minute, second experiment, dilution factor 10^6, wells 1-10",+ and −
same,CPE test (virus replication in the cell wells),"0.2 mM EGCG + virus, PR8, 1 minute, second experiment, dilution factor 10^7, wells 1-10",−
same,CPE test (virus replication in the cell wells),"0.2 mM EGCG + virus, PR8, 1 minute, second experiment, dilution factor 10^8, wells 1-10",−
same,average inactivation efficiency against virus,"0.2 mM EGCG, PR8 virus, 1 minute",49.88%
same,inactivation efficiency against the virus,[1],84.15%
same,average inactivation efficiency against virus,[1],70.91%
same,"CPE test, virus replication in cell wells (wells 1-10)","1 mM EGCG + PR8 virus, 5 minutes, third experiment, dilution factor 10^3",+
same,"CPE test, virus replication in cell wells (wells 1-10)","1 mM EGCG + PR8 virus, 5 minutes, third experiment, dilution factor 10^4",+
same,"CPE test, virus replication in cell wells (wells 1-10)","1 mM EGCG + PR8 virus, 5 minutes, third experiment, dilution factor 10^5",+
same,"CPE test, virus replication in cell wells (wells 1-10)","1 mM EGCG + PR8 virus, 5 minutes, third experiment, dilution factor 10^6",− and +
same,"CPE test, virus replication in cell wells (wells 1-10)","1 mM EGCG + PR8 virus, 5 minutes, third experiment, dilution factor 10^7",−
same,"CPE test, virus replication in cell wells (wells 1-10)","1 mM EGCG + PR8 virus, 5 minutes, third experiment, dilution factor 10^8",−
same,CPE test (virus replication in the cell wells),"1 mM EGCG + PR8 virus, co-incubated 1 minute, third experiment, dilution factor 10^3, wells 1-10",+
same,CPE test (virus replication in the cell wells),"1 mM EGCG + PR8 virus, co-incubated 1 minute, third experiment, dilution factor 10^4, wells 1-10",+
same,CPE test (virus replication in the cell wells),"1 mM EGCG + PR8 virus, co-incubated 1 minute, third experiment, dilution factor 10^5, wells 1-10",+ and −
same,CPE test (virus replication in the cell wells),"1 mM EGCG + PR8 virus, co-incubated 1 minute, third experiment, dilution factor 10^6, wells 1-10",− and +
same,CPE test (virus replication in the cell wells),"1 mM EGCG + PR8 virus, co-incubated 1 minute, third experiment, dilution factor 10^7, wells 1-10",−
same,CPE test (virus replication in the cell wells),"1 mM EGCG + PR8 virus, co-incubated 1 minute, third experiment, dilution factor 10^8, wells 1-10",−
same,CPE test (virus replication in the cell wells),"1 mM EGCG + PR8 virus, co-incubated 5 minutes, first experiment, dilution factor 10^3, wells 1-10",+
same,CPE test (virus replication in the cell wells),"1 mM EGCG + PR8 virus, co-incubated 5 minutes, first experiment, dilution factor 10^4, wells 1-10",+
same,CPE test (virus replication in the cell wells),"1 mM EGCG + PR8 virus, co-incubated 5 minutes, first experiment, dilution factor 10^5, wells 1-10",+
same,CPE test (virus replication in the cell wells),"1 mM EGCG + virus, PR8, 1 minute, first experiment, dilution factor 10^3, wells 1-10",+
same,CPE test (virus replication in the cell wells),"1 mM EGCG + virus, PR8, 1 minute, first experiment, dilution factor 10^4, wells 1-10",+
same,CPE test (virus replication in the cell wells),"1 mM EGCG + virus, PR8, 1 minute, first experiment, dilution factor 10^5, wells 1-10",+
same,CPE test (virus replication in the cell wells),"1 mM EGCG + virus, PR8, 1 minute, first experiment, dilution factor 10^6, wells 1-10",+ and −
same,CPE test (virus replication in the cell wells),"1 mM EGCG + virus, PR8, 1 minute, first experiment, dilution factor 10^7, wells 1-10",−
same,CPE test (virus replication in the cell wells),"1 mM EGCG + virus, PR8, 1 minute, first experiment, dilution factor 10^8, wells 1-10",−
same,CPE test (virus replication in the cell wells),"1 mM EGCG + virus, PR8, 1 minute, second experiment, dilution factor 10^1, wells 1-10",+
same,CPE test (virus replication in the cell wells),"1 mM EGCG + virus, PR8, 1 minute, second experiment, dilution factor 10^2, wells 1-10",+
same,CPE test (virus replication in the cell wells),"1 mM EGCG + virus, PR8, 1 minute, second experiment, dilution factor 10^3, wells 1-10",+
same,CPE test (virus replication in the cell wells),"1 mM EGCG + virus, PR8, 1 minute, second experiment, dilution factor 10^4, wells 1-10",+
same,CPE test (virus replication in the cell wells),"1 mM EGCG + virus, PR8, 1 minute, second experiment, dilution factor 10^5, wells 1-10",+
same,CPE test (virus replication in the cell wells),"1 mM EGCG + virus, PR8, 1 minute, second experiment, dilution factor 10^6, wells 1-10",− and +
same,CPE test (virus replication in the cell wells),"1 mM EGCG + virus, PR8, 1 minute, second experiment, dilution factor 10^7, wells 1-10",−
same,CPE test (virus replication in the cell wells),"1 mM EGCG + virus, PR8, 1 minute, second experiment, dilution factor 10^8, wells 1-10",−
same,inactivation efficiency against the virus,"1 mM EGCG, PR8 virus, 1 minute",87.41% and 80.05%
same,average inactivation efficiency against virus,"1 mM EGCG, PR8 virus, 1 minute",82.50%
same,inactivation efficiency against the virus,[2],87.41% and 84.15% and 90.00%
same,average inactivation efficiency against virus,[2],87.19%
same,"CPE test, virus replication in cell wells (wells 1-10)","5 mM EGCG + PR8 virus, 5 minutes, third experiment, dilution factor 10^4",+ and −
same,"CPE test, virus replication in cell wells (wells 1-10)","5 mM EGCG + PR8 virus, 5 minutes, third experiment, dilution factor 10^5",− and +
same,"CPE test, virus replication in cell wells (wells 1-10)","5 mM EGCG + PR8 virus, 5 minutes, third experiment, dilution factor 10^6",−
same,"CPE test, virus replication in cell wells (wells 1-10)","5 mM EGCG + PR8 virus, 5 minutes, third experiment, dilution factor 10^7",−
same,"CPE test, virus replication in cell wells (wells 1-10)","5 mM EGCG + PR8 virus, 5 minutes, third experiment, dilution factor 10^8",−
same,CPE test (virus replication in the cell wells),"5 mM EGCG + PR8 virus, co-incubated 1 minute, third experiment, dilution factor 10^4, wells 1-10",+
same,CPE test (virus replication in the cell wells),"5 mM EGCG + PR8 virus, co-incubated 1 minute, third experiment, dilution factor 10^5, wells 1-10",+ and −
same,CPE test (virus replication in the cell wells),"5 mM EGCG + PR8 virus, co-incubated 1 minute, third experiment, dilution factor 10^6, wells 1-10",− and +
same,CPE test (virus replication in the cell wells),"5 mM EGCG + PR8 virus, co-incubated 1 minute, third experiment, dilution factor 10^7, wells 1-10",−
same,CPE test (virus replication in the cell wells),"5 mM EGCG + PR8 virus, co-incubated 1 minute, third experiment, dilution factor 10^8, wells 1-10",−
same,CPE test (virus replication in the cell wells),"5 mM EGCG + PR8 virus, co-incubated 5 minutes, first experiment, dilution factor 10^4, wells 1-10",−
same,CPE test (virus replication in the cell wells),"5 mM EGCG + PR8 virus, co-incubated 5 minutes, first experiment, dilution factor 10^5, wells 1-10",−
same,CPE test (virus replication in the cell wells),"5 mM EGCG + PR8 virus, co-incubated 5 minutes, first experiment, dilution factor 10^6, wells 1-10",−
same,CPE test (virus replication in the cell wells),"5 mM EGCG + PR8 virus, co-incubated 5 minutes, first experiment, dilution factor 10^7, wells 1-10",−
same,CPE test (virus replication in the cell wells),"5 mM EGCG + PR8 virus, co-incubated 5 minutes, first experiment, dilution factor 10^8, wells 1-10",−
same,CPE test (virus replication in the cell wells),"5 mM EGCG + virus, PR8, 1 minute, first experiment, dilution factor 10^4, wells 1-10",+ and −
same,CPE test (virus replication in the cell wells),"5 mM EGCG + virus, PR8, 1 minute, first experiment, dilution factor 10^5, wells 1-10",− and +
same,CPE test (virus replication in the cell wells),"5 mM EGCG + virus, PR8, 1 minute, first experiment, dilution factor 10^6, wells 1-10",−
same,CPE test (virus replication in the cell wells),"5 mM EGCG + virus, PR8, 1 minute, first experiment, dilution factor 10^7, wells 1-10",−
same,CPE test (virus replication in the cell wells),"5 mM EGCG + virus, PR8, 1 minute, first experiment, dilution factor 10^8, wells 1-10",−
same,CPE test (virus replication in the cell wells),"5 mM EGCG + virus, PR8, 1 minute, second experiment, dilution factor 10^4, wells 1-10",− and +
same,CPE test (virus replication in the cell wells),"5 mM EGCG + virus, PR8, 1 minute, second experiment, dilution factor 10^5, wells 1-10",− and +
same,CPE test (virus replication in the cell wells),"5 mM EGCG + virus, PR8, 1 minute, second experiment, dilution factor 10^6, wells 1-10",−
same,CPE test (virus replication in the cell wells),"5 mM EGCG + virus, PR8, 1 minute, second experiment, dilution factor 10^7, wells 1-10",−
same,CPE test (virus replication in the cell wells),"5 mM EGCG + virus, PR8, 1 minute, second experiment, dilution factor 10^8, wells 1-10",−
same,inactivation efficiency against the virus,"5 mM EGCG, PR8 virus, 1 minute",99.50% and 99.60% and 93.69%
same,average inactivation efficiency against virus,"5 mM EGCG, PR8 virus, 1 minute",97.60%
same,residual virus titer of EGCG+virus group (Karber method),[3],10^4 TCID50/50 μL
same,inactivation efficiency against the virus,[3],99.92% and 99.75% and 99.60%
same,average inactivation efficiency against virus,[3],99.76%
